Test: Human HepG2 cell viability assay in 384 well format
Assay type: toxicity, cell-based
Set-up: dose 125 nL, time 70.5 hour; cytotoxicity at 70.5 h: concentration not given beside the values
Settings: HepG2 cells, read-out: Inhibition

SMILES	cytotoxicity at 70.5 h [%]
COc1ccc(C)cc1CNC(=O)C1=NN(c2ccccc2)C(=O)CN1	-5.19
COc1ncccc1CNC(=O)C1=NN(c2ccccc2)C(=O)CN1	0.82
O=C(NCc1ccccn1)NCC(c1ccco1)N1CCCCC1 (configuration not stated)	-5.04
Cc1nc(CN2CCN(C(=O)CC(C)(C)c3ccccc3)CC2)no1	-5.37
O=C(Cn1cc(I)cn1)N1CCOCC1	-3.24
C[S+]([O-])c1nncn1CC(=O)c1ccc2c(c1)CCC2 (configuration not stated)	8.46
COc1ccccc1NC(=O)NC(C)c1nc[nH]n1 (configuration not stated)	0.321
CC(NC(=O)Nc1ccc(F)c(F)c1)c1nc[nH]n1 (configuration not stated)	-2.38
CS(=O)(=O)NC(=O)c1cc(Cl)c2c(c1)OCCCO2	0.437
CCN1CC(C(=O)NC(C)(C)C)CC1=O (configuration not stated)	-6.02
CCC(C)(NCc1cccc(NC(C)=O)c1)c1nc(C)cs1 (configuration not stated)	-0.722
Cc1nn(C)c(N(C)C)c1CNCc1ccc(N(C)C)nc1	-2.4
Cc1cc(C(=O)Cn2cnnc2[S+](C)[O-])cc(C)c1F (configuration not stated)	33.6
Cc1ccc(CNCc2c(C)nn(C)c2N(C)C)cn1	-3.06
CCC(C)(NCC(=O)NC(C)C)c1nc(C)cs1 (configuration not stated)	-3.79
CC(C)CCN1CCN(Cc2nc(C(C)C)no2)CC1	-0.333
CCCc1noc(CN2CCN(CCC(C)C)CC2)n1	-2.49
CCc1cc(CNC(=O)NCC(c2ccco2)N2CCCC2)[nH]n1 (configuration not stated)	-3.15
Cc1nc(CN2CCN(C(=O)CCc3cccnc3)CC2)no1	16.4
Cc1cc(C(N)=O)ccc1NC(=O)c1nc(N2CCCCC2)ncc1Cl	3.51
O=C(Nc1ccc(N2CCCCC2)nc1)N1CCc2sccc2C1	16.2
COc1cc(CN(C)C(=O)NCCC(=O)NC2CCCC2)ccc1SC	14.4
Cc1ccc(C(=O)NCCCN(C(C)C)S(C)(=O)=O)c(=O)[nH]1	-5.61
Cc1ccc(C(=O)NCCCS(=O)(=O)c2ccccc2)c(=O)[nH]1	-4.85

SMILES	cytotoxicity at 70.5 h [%]
CN(C)c1ccc(NC(=O)N2CCc3sccc3C2)cn1	4.85
O=C(c1cc2c([nH]c1=O)CCC2)N1CCCC1c1cccnc1 (configuration not stated)	14.6
CC(C)n1c(C2CCCN(CC(=O)NC(N)=O)C2)nc2ccccc21 (configuration not stated)	-1.95
COCCNC(=O)Nc1cc2c(cc1SC)OCCO2	-4.52
CCc1nc(CCNC(=O)C2CC2)sc1C	-1.22
c1cc(CCN2CCC(NCc3ccsc3)CC2)ccn1	15.8
CSc1cc2c(cc1NC(=O)NCC1CCOC1)OCCO2 (configuration not stated)	-1.8
CC(CNC(=O)N1CCNC(=O)CC1)Cc1cccs1 (configuration not stated)	0.139
CSc1ccc(CNC2CCN(CCc3ccncc3)CC2)cc1	-1.82
Cc1occc1-c1nc(-c2cccc(CN3CCOCC3)c2)no1	0.585
CCSC1(CNc2ncc(Br)cn2)CCOCC1	-5.62
COc1cccc(CNc2cc(C)nc(-c3ccncc3)n2)c1O	-7.57
Cc1cc(-c2nc(-c3cccc(CN4CCOCC4)c3)no2)no1	0.395
Cc1c(-c2nc(-c3cccc(CN4CCOCC4)c3)no2)cnn1C	-13.7
CCCc1nc(CNc2cccc(C(=O)N3CCCC(O)C3)c2)no1 (configuration not stated)	-4.84
FC(F)(F)c1cccnc1N1CCC(OC2CCOCC2)CC1	-6.19
O=C(N1CCC(Oc2ccncc2)C1)C1(c2ccc(F)cc2)CC1 (configuration not stated)	5.93
CS(=O)(=O)Cc1nc(CNc2c(F)cc(F)cc2F)cs1	-2.82
CS(=O)(=O)Cc1nc(CNc2ccc(F)c(F)c2)cs1	-6.66
Cc1ccc2cc(C(=O)N3CCCCC3c3nc[nH]n3)ccc2n1 (configuration not stated)	11.1
NS(=O)(=O)CC1CCN(c2ncccc2C(F)(F)F)CC1	7.95
O=C(N1CCC(Oc2ccncc2)C1)C1(c2ccccc2F)CC1 (configuration not stated)	-16.9
CCCc1nn(C2CCN(C3CC3)C2=O)c(=O)o1 (configuration not stated)	-5.48

From ChEMBL document CHEMBL3507680, “University of Dundee, Gates Library screen for HepG2 cell viability”
